Tests used:
Assay type in all cases: cell-based
BJAB cells = experiment: Selectivity: apoptosis (DNA fragmentation, flow cytometry) in lymphoma cells
Experimental: (§1) WIL 071 acts selectively in malignant cells that are proliferating.
(§2) The DNA fragmentation was measured by flow cytometry, see FIG. 7. The experiments were performed in triplicate. The error bars show the standard deviations of the measured values of three independent experiments.

Nalm-6 cells [1] = experiment: Selectivity: apoptosis (DNA fragmentation, flow cytometry) in leukemia cells
Experimental: as §1, §2

[2] = tested on: pancreatic carcinoma cells (DAN-G); experiment: Apoptosis in pancreatic carcinoma cells; conditions: DAN-G cell line
Experimental: In contrast to conventional glucocorticoids, the steroid WIL 071 can induce apoptosis also in pancreatic carcinoma cells.
The DNA fragmentation was measured by flow cytometry, see FIG. 11. The experiments were performed in triplicate. The error bars show the standard deviations of the measured values of three independent experiments.
The standard treatment for pancreatic carcinoma includes 5-fluorouracil.

[3] = tested on: glioblastoma cells (DBTRG05MG cells); experiment: Apoptosis in brain tumor cells
Experimental: In contrast to conventional glucocorticoids, the steroid WIL 071 can induce apoptosis also in brain tumor cells.
The DNA fragmentation was measured by flow cytometry, see FIG. 9. The experiments were performed in triplicate. The error bars show the standard deviations of the measured values of three independent experiments.

human primary leukocytes = experiment: Selectivity: apoptosis (DNA fragmentation, flow cytometry) in leukocytes
Experimental: as §1, §2

[4] = tested on: neuroblastoma cells (SKNAS cells), LiOn cells; experiment: Apoptosis in cytostatics-resistant solid tumor cells; conditions: SKNAS cells and cisplatin-resistant LiOn cells (caspase-8 underexpression)
Experimental: In contrast to conventional glucocorticoids, the steroid WIL 071 can induce apoptosis also in solid tumor cells.
The DNA fragmentation was measured by flow cytometry), see FIG. 8. The experiments were performed in triplicate. The error bars show the standard deviations of the measured values of three independent experiments.

[5] = tested on: prednisolone-resistant leukemia cells; experiment: Overcoming of prednisolone resistance; conditions: 72 h
Experimental: (§3) The cells were incubated in 6-well plates with 1.0·10^5 cells/mL in two milliliters of medium with the respective steroid derivative in different concentrations. The included solvent control (DMSO) served as a control, which was subtracted from all the other measured values, in order not to take into account the spontaneous apoptosis of the cells that takes place independently of the concentration of active ingredient. After 72 h, a modified cell cycle analysis was performed, in order to quantify the proportion of apoptotic cells by flow cytometry. For each concentration of the steroid, the respective mean values f standard deviations, n=3 (*: p<0.05 vs. DMSO, t test) were determined. Using the curve of the dose-effect relationship (steroid concentration−apoptosis induction) formed from these measured values, the steroid concentration at which apoptosis was triggered in 50% of the tested leukemia cells was read.
Prednisolone resistance is said to be overcome if the induction of apoptosis in prednisolone-resistant leukemia cells is as high as it is in normal leukemia cells.

Nalm-6 cells [6] = experiment: Half-maximal apoptosis induction (AC50) in Nalm-6 cells; conditions: Homo sapiens; Nalm-6, 72 h, flow cytometry; read-out: Biological effect: half-maximal apoptosis induction (AC50)
Experimental: Apoptosis Induction in Nalm-6 Cells after Treatment with WIL-071 or Different Steroid Derivatives.
as §3

BiBo cells = experiment: Apoptosis induction in polycytostatics-resistant BiBo cells vs BJAB; conditions: vincristine-resistant BJAB, Bcl-2 overexpression
Experimental: BiBo cells are lymphoma cells (BJAB cells) that have been made resistent against vincristine, and have a Bcl-2 overexpression as a resistence mechanism. They have co-resistences for the following cytostatics: • vincristine, vinblastine, vindesine, vinorelbin, taxol • cytarabin • daunorubicin.
The experiments were performed in triplicate. The error bars show the standard deviations of the measured values of three independent experiments. The steroid WIL 071 overcomes steroid resistence in lymphoma cells (BiBo cells).

Nalm-6 cells [7] = experiment: Synergistic apoptosis induction with cytarabin or vincristine
Experimental: The experiments were performed in triplicate. The error bars show the standard deviations of the measured values of three independent experiments.

Nalm-6 cells [8] = experiment: Inhibition of proliferation in leukemia cells (Nalm-6); conditions: Nalm-6, 24 h, concentration-dependent
Experimental: In leukemia cells (Nalm-6), cell proliferation is inhibited. After 24 h, 1×10^5 cells will have proliferated to almost threefold (2.97×10^5 cells), while cell proliferation is inhibited up to 100% in a concentration-dependent way by treatment with the steroid WIL 071, see FIG. 1. The experiments were performed in triplicate. The error bars show the standard deviations of the measured values of three independent experiments.

[9] = tested on: primary glioblastoma cells of a patient; experiment: Apoptosis in primary human glioblastoma cells; conditions: grade 4
Experimental: In contrast to conventional glucocorticoids, the steroid WIL 071 can induce apoptosis also in primary human brain tumor cells.
The DNA fragmentation was measured by flow cytometry, see FIG. 10. The experiments were performed in triplicate. The error bars show the standard deviations of the measured values of three independent experiments.

7-CCA cells = experiment: Apoptosis induction in polycytostatics-resistant 7-CCA cells vs BJAB; conditions: doxorubicin-resistant BJAB, caspase-3 underexpression
Experimental: 7-CCA cells are lymphoma cells (BJAB cells) that have been made resistent against doxorubin, and have a caspase-3 underexpression as a resistence mechanism. They have co-resistences for the following cytostatics: • vincristine, vinblastine, vindesine, vinorelbin, taxol • cytarabin, fudarabin, cladribin, clofarabin, • daunorubicin, doxorubicin, idarubicin, epirubicin • cisplatin, oxaliplatin
The experiments were performed in triplicate. The error bars show the standard deviations of the measured values of three independent experiments. The steroid WIL 071 overcomes steroid resistence in lymphoma cells (7-CCA cells).

For `CC(C)CCC[C@@H](C)[C@H]1CC[C@H]2[C@@H]3[C@H]4OC[C@@]5(CC[C@H](O)C[C@]5(O)C4=O)[C@H]3CC[C@]12C` [WIL-071, 3β,5α-dihydroxy-7β,19-epoxy-cholestan-6-one], the “apoptosis induction (DNA fragmentation)” value (BJAB cells) was “apoptosis is induced in a concentration-dependent way”, the “apoptosis induction (DNA fragmentation)” value (Nalm-6 cells [1]) was “apoptosis is induced in a concentration-dependent way” and the “apoptosis induction (DNA fragmentation)” value [2] was “significantly induces apoptosis”. The “apoptosis induction (DNA fragmentation)” value [3] was “significantly induces apoptosis”, the “apoptosis induction (DNA fragmentation)” value (human primary leukocytes) was “apoptosis is not induced” and the “apoptosis induction / overcoming of cytostatics resistance” value [4] was “Resistances towards cytostatics are overcome”. For the same molecule, the EC50 [5] was 16 µM, the AC50 (Nalm-6 cells [6]) was 17.2 µM and the “apoptosis induction in resistant BiBo cells compared with BJAB” value (BiBo cells) was “induces as much apoptosis as in the non-resistent lymphoma cells”. The “synergistic effect on apoptosis with cytarabin” value (Nalm-6 cells [7]; Nalm-6, parallel treatment with cytarabin) was “synergistic effects”, the “synergistic effect on apoptosis with vincristine” value (Nalm-6 cells [7]; Nalm-6, parallel treatment with vincristine) was “synergistic effects” and the “inhibition of cell proliferation” value (Nalm-6 cells [8]) was “up to 100%”. The “apoptosis induction (DNA fragmentation)” value [9] was “significantly induces apoptosis” and the “apoptosis induction in resistant 7-CCA cells compared with BJAB” value (7-CCA cells) was “induces as much apoptosis as in the non-resistent lymphoma cells”.
